From PMC9403976, “Elucidating the path to Plasmodium prolyl-tRNA synthetase inhibitors that overcome halofuginone resistance” (Nature Communications, 2022)
Several values for one entry are separate records, joined by “and”; a condition that tells them apart may be missing. Equal entries are not always repeated. Where two headings read alike, the source gives them in different places.

Experiments:
P. falciparum Dd2-2D4 = experiment: P. falciparum asexual blood stage (ABS) growth assay, SYBR Green, 72 h, wild-type parasites; assay type: cell-based, Plasmodium falciparum
PfcProRS = biological target: T1, PfcProRS (Plasmodium falciparum, UniProt Q8I5R7); assay type: binding; details: for dose-response signal (normalized), SI Fig 8: single replicates, listed as NCP26 (3)
T1 construct: made in house; host or cells: E. coli SoluBL-21
T1 sequence (Q8I5R7 249-746): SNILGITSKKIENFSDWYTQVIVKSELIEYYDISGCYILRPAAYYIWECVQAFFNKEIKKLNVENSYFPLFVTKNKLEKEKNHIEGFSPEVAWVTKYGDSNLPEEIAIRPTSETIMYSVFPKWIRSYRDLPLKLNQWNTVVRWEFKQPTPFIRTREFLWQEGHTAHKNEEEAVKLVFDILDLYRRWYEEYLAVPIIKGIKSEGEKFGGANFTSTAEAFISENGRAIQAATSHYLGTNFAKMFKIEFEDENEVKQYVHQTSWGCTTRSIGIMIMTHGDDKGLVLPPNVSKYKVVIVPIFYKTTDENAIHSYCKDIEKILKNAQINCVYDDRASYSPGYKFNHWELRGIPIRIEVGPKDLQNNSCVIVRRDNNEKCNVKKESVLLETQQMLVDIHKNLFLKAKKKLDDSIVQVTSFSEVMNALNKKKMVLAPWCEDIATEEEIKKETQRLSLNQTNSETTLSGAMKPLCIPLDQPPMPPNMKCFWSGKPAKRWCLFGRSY

[1] = system: halofuginone-induced P. falciparum (elevated proline homeostasis); experiment: P. falciparum ABS growth assay, SYBR Green, 72 h, halofuginone-induced parasites; assay type: cell-based, Plasmodium falciparum; details: for parasite growth, replicate wells (Fig 1b): Halofuginone-Induced
Outline: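 Dd2-derived P. falciparum lines (HFGR-I, halofuginone-induced) at 1% parasitemia and 1% hematocrit in RPMI + 0.5% Albumax were exposed to compounds in triplicate dose-response for 72 h. Growth was read as SYBR Green 1 fluorescence, with 10 μM dihydroartemisinin as kill control and compound-free wells as growth control.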

[2] = system: P. falciparum Dd2-2D4 NCP26 selections S1-3; experiment: ABS growth assay on bulk populations and clones from NCP26 resistance selections S1-3; assay type: cell-based, Plasmodium falciparum; details: for EC50: Plasmodium falciparum
[3] = Dd2-2D4, Log[inhibitor] (M) -8.010

Compound: O=C(NC1Cc2ccccc2C1)c1nccnc1NC(=O)N1CCCCC1 [NCP26]
- parasite growth, replicate wells (Fig 1b) (P. falciparum Dd2-2D4; Dd2-2D4, Log[inhibitor] (M) -7.107, listed as NCP26 (3)): 3.30E+01 and 2.80E+01 and 3.00E+01
- parasite growth, replicate wells (Fig 1b) (P. falciparum Dd2-2D4; Dd2-2D4, Log[inhibitor] (M) -7.408, listed as NCP26 (3)): 9.50E+01 and 9.40E+01 and 9.90E+01
- parasite growth, replicate wells (Fig 1b) (P. falciparum Dd2-2D4; Dd2-2D4, Log[inhibitor] (M) -7.709, listed as NCP26 (3)): 1.09E+02 and 1.04E+02 and 1.02E+02
- ABS growth dose-response, normalized signal (Replicates 1-3) (P. falciparum Dd2-2D4; [3]): 101
- parasite growth, replicate wells (Fig 1b) (P. falciparum Dd2-2D4; [3]): 1.01E+02
- EC50 (P. falciparum Dd2-2D4; Plasmodium falciparum, DD2, SI Fig 16b, values on -log scale, read-out: ABS - Dd2-2D4 (converted)): 67.5 nM
- binding mode with respect to substrates (ATP, proline) (PfcProRS): proline-uncompetitive
- fold increased affinity in the presence of proline (PfcProRS): 52 fold
- dose-response signal (normalized), SI Fig 8 (PfcProRS; Log[inhibitor] (M) -6.301): -4.45E-02 and 1.59E-01 and 5.71E-02 and 4.55E-02 and 8.14E-02 and 4.48E-02
- dose-response signal (normalized), SI Fig 8 (PfcProRS; Log[inhibitor] (M) -6.602): 1.17E-01 and 1.10E-01 and 1.62E-01 and 1.06E-01 and 1.14E-01 and 3.45E-02
- dose-response signal (normalized), SI Fig 8 (PfcProRS; Log[inhibitor] (M) -6.904): -7.84E-03 and 4.23E-02 and 1.85E-01 and 6.33E-02 and -1.22E-02 and 1.04E-01
- dose-response signal (normalized), SI Fig 8 (PfcProRS; Log[inhibitor] (M) -7.205): 1.30E-01 and 1.69E-01 and 1.26E-02 and 6.32E-02 and 1.43E-01 and 5.72E-02
- dose-response signal (normalized), SI Fig 8 (PfcProRS; Log[inhibitor] (M) -7.506): 2.32E-01 and 1.89E-01 and 1.64E-01 and 2.04E-01 and 7.73E-02 and 1.02E-01
- dose-response signal (normalized), SI Fig 8 (PfcProRS; Log[inhibitor] (M) -7.796): 3.08E-01 and 3.64E-01 and 4.11E-01 and 4.02E-01 and 3.25E-01 and 3.10E-01
- dose-response signal (normalized), SI Fig 8 (PfcProRS; Log[inhibitor] (M) -8.097): 5.23E-01 and 5.87E-01 and 9.12E-01 and 7.05E-01 and 5.54E-01 and 7.03E-01
- dose-response signal (normalized), SI Fig 8 (PfcProRS; Log[inhibitor] (M) -8.407): 7.84E-01 and 7.32E-01 and 7.98E-01 and 9.93E-01 and 8.87E-01 and 8.26E-01
- dose-response signal (normalized), SI Fig 8 (PfcProRS; Log[inhibitor] (M) -8.708): 9.57E-01 and 1.08E+00 and 9.98E-01 and 8.58E-01 and 8.40E-01 and 9.70E-01
- dose-response signal (normalized), SI Fig 8 (PfcProRS; Log[inhibitor] (M) -9.018): 9.48E-01 and 9.31E-01 and 1.13E+00 and 1.15E+00 and 1.02E+00 and 9.66E-01
- dose-response signal (normalized), SI Fig 8 (PfcProRS; Log[inhibitor] (M) -9.319): 9.22E-01 and 1.00E+00 and 1.07E+00 and 1.03E+00 and 1.09E+00 and 9.57E-01
- dose-response signal (normalized), SI Fig 8 (PfcProRS; Log[inhibitor] (M) -9.620): 1.10E+00 and 1.04E+00 (2×) and 9.95E-01 and 1.13E+00 and 9.21E-01
- dose-response signal (normalized), SI Fig 8 (PfcProRS; Log[inhibitor] (M) -9.921): 9.45E-01 and 1.02E+00 and 1.05E+00 and 9.10E-01 and 9.27E-01 and 9.41E-01
- dose-response signal (normalized), SI Fig 8 (PfcProRS; Log[inhibitor] (M) -10.097): 1.10E+00 and 1.01E+00 and 1.17E+00 and 9.78E-01 and 8.32E-01 and 1.04E+00
- dose-response signal (normalized), SI Fig 8 (PfcProRS; Log[inhibitor] (M) -10.585): 1.14E+00 and 1.18E+00 and 8.42E-01 and 8.75E-01 and 9.70E-01 and 1.02E+00
- PfcProRS -- best Kd (PfcProRS; SI Fig 16a, values on -log scale): 8.599
- parasite growth, replicate wells (Fig 1b) ([1]; Log[inhibitor] (M) -4.699, listed as NCP26 (3)): 0.00E+00 and -1.00E+00 and -2.00E+00
- parasite growth, replicate wells (Fig 1b) ([1]; Log[inhibitor] (M) -5.000, listed as NCP26 (3)): 1.00E+00 (2×) and -1.00E+00
- parasite growth, replicate wells (Fig 1b) ([1]; Log[inhibitor] (M) -5.301, listed as NCP26 (3)): -1.00E+00 (2×) and 7.00E+00
- parasite growth, replicate wells (Fig 1b) ([1]; Log[inhibitor] (M) -5.602, listed as NCP26 (3)): 1.00E+00 and 5.00E+00 and 0.00E+00
- parasite growth, replicate wells (Fig 1b) ([1]; Log[inhibitor] (M) -5.903, listed as NCP26 (3)): 0.00E+00 and -1.00E+00 (2×)
- parasite growth, replicate wells (Fig 1b) ([1]; Log[inhibitor] (M) -6.204): -2.00E+00
- parasite growth, replicate wells (Fig 1b) ([1]; Log[inhibitor] (M) -6.505, listed as NCP26 (3)): 0.00E+00 (2×) and -1.00E+00
- parasite growth, replicate wells (Fig 1b) ([1]; Log[inhibitor] (M) -6.806, listed as NCP26 (3)): 1.80E+01 (2×) and 1.90E+01
- parasite growth, replicate wells (Fig 1b) ([1]; Log[inhibitor] (M) -7.107, listed as NCP26 (3)): 9.50E+01 and 8.90E+01 and 9.10E+01
- parasite growth, replicate wells (Fig 1b) ([1]; Log[inhibitor] (M) -7.408, listed as NCP26 (3)): 1.05E+02 and 1.12E+02 and 1.07E+02
- parasite growth, replicate wells (Fig 1b) ([1]; Log[inhibitor] (M) -7.709, listed as NCP26 (3)): 1.09E+02 and 1.08E+02 and 1.10E+02
- parasite growth, replicate wells (Fig 1b) ([1]; Log[inhibitor] (M) -8.010, listed as NCP26 (3)): 9.90E+01 and 1.01E+02 and 1.04E+02
- dose-response value, Replicates 1-3 (SI Fig 2e) ([1]; Log[inhibitor] (M) -6.204): -2.0
- EC50 ([2]; DD2, cell line S1 - Clone A8, read-out: EC50 [nM] mean): 68.1 nM
- EC50 ([2]; DD2, cell line S1 - bulk population, read-out: EC50 [nM] mean): 102 nM
- EC50 ([2]; DD2, cell line S2 - Clone A3, read-out: EC50 [nM] mean): 1240 nM
- EC50 ([2]; DD2, cell line S2 - Clone B9, read-out: EC50 [nM] mean): 2930 nM
- EC50 ([2]; DD2, cell line S2 - Clone C5, read-out: EC50 [nM] mean): 1580 nM
- EC50 ([2]; DD2, cell line S2 - bulk population, read-out: EC50 [nM] mean): 1340 nM
- EC50 ([2]; DD2, cell line S3 - Clone B3, read-out: EC50 [nM] mean): 2810 nM
- EC50 ([2]; DD2, cell line S3 - Clone B7, read-out: EC50 [nM] mean): 2450 nM
- EC50 ([2]; DD2, cell line S3 - bulk population, read-out: EC50 [nM] mean): 2000 nM
- EC50 ([2]; DD2, read-out: EC50 [nM] mean, cell line S3 - Clone B2): 5110 nM
- parasite growth, dose-response point ([2]; S1 - Clone A8, Log[NCP26] (M) -6.505): 1
- parasite growth, dose-response point ([2]; S1 - Clone A8, Log[NCP26] (M) -6.806): 9
- parasite growth, dose-response point ([2]; S1 - Clone A8, Log[NCP26] (M) -7.107): 33 and 29
- parasite growth, dose-response point ([2]; S1 - Clone A8, Log[NCP26] (M) -7.408): 93 and 97 and 101
- parasite growth, dose-response point ([2]; S2 - Clone A3, Log[NCP26] (M) -6.505): 93 and 92 and 86
- parasite growth, dose-response point ([2]; S2 - Clone A3, Log[NCP26] (M) -6.806): 96 and 98 and 93
- parasite growth, dose-response point ([2]; S2 - Clone A3, Log[NCP26] (M) -7.107): 100 and 98
- parasite growth, dose-response point ([2]; S2 - Clone A3, Log[NCP26] (M) -7.408): 99 and 101 and 100
- parasite growth, dose-response point ([2]; S2 - Clone B9, Log[NCP26] (M) -6.505): 98 and 112 and 97
- parasite growth, dose-response point ([2]; S2 - Clone B9, Log[NCP26] (M) -6.806): 107 and 93 and 96
- parasite growth, dose-response point ([2]; S2 - Clone B9, Log[NCP26] (M) -7.107): 96 and 110 and 113
- parasite growth, dose-response point ([2]; S2 - Clone B9, Log[NCP26] (M) -7.408): 107 and 94 and 102
- parasite growth, dose-response point ([2]; S2 - Clone B9, Log[NCP26] (M) -7.709): 99 and 93 and 94
- parasite growth, dose-response point ([2]; S2 - Clone C5, Log[NCP26] (M) -6.505): 95 and 102
- parasite growth, dose-response point ([2]; S2 - Clone C5, Log[NCP26] (M) -6.806): 98 and 100 and 101
- parasite growth, dose-response point ([2]; S2 - Clone C5, Log[NCP26] (M) -7.107): 101 and 97
- parasite growth, dose-response point ([2]; S2 - Clone C5, Log[NCP26] (M) -7.408): 96 and 101 and 100
- parasite growth, dose-response point ([2]; S2 - Clone C5, Log[NCP26] (M) -7.709): 102 and 105
- parasite growth, dose-response point ([2]; S3 - Clone A6, Log[NCP26] (M) -6.505): 108 and 103 and 90
- parasite growth, dose-response point ([2]; S3 - Clone A6, Log[NCP26] (M) -6.806): 101 and 97
- parasite growth, dose-response point ([2]; S3 - Clone A6, Log[NCP26] (M) -7.107): 95 and 100 and 96
- parasite growth, dose-response point ([2]; S3 - Clone A6, Log[NCP26] (M) -7.408): 112 and 100 and 105
- parasite growth, dose-response point ([2]; S3 - Clone A8, Log[NCP26] (M) -6.505): 94 and 102 and 97
- parasite growth, dose-response point ([2]; S3 - Clone A8, Log[NCP26] (M) -6.806): 101 and 99 and 104
- parasite growth, dose-response point ([2]; S3 - Clone A8, Log[NCP26] (M) -7.107): 100 and 103 and 99
- parasite growth, dose-response point ([2]; S3 - Clone A8, Log[NCP26] (M) -7.408): 104 (2×) and 98
- parasite growth, dose-response point ([2]; S3 - Clone B2, Log[NCP26] (M) -6.505): 76 and 92 and 86
- parasite growth, dose-response point ([2]; S3 - Clone B2, Log[NCP26] (M) -6.806): 88 and 90 and 99
- parasite growth, dose-response point ([2]; S3 - Clone B2, Log[NCP26] (M) -7.107): 113 and 109 and 107
- parasite growth, dose-response point ([2]; S3 - Clone B2, Log[NCP26] (M) -7.408): 108 and 109
- parasite growth, dose-response point ([2]; S3 - Clone B3, Log[NCP26] (M) -6.505): 92 and 95
- parasite growth, dose-response point ([2]; S3 - Clone B3, Log[NCP26] (M) -6.806): 92 and 96 and 98
- parasite growth, dose-response point ([2]; S3 - Clone B3, Log[NCP26] (M) -7.107): 99 and 94
- parasite growth, dose-response point ([2]; S3 - Clone B3, Log[NCP26] (M) -7.408): 105 and 101 and 104
- parasite growth, dose-response point ([2]; S3 - Clone B7, Log[NCP26] (M) -6.505): 101 and 95 and 100
- parasite growth, dose-response point ([2]; S3 - Clone B7, Log[NCP26] (M) -6.806): 99 and 96 and 101
- parasite growth, dose-response point ([2]; S3 - Clone B7, Log[NCP26] (M) -7.107): 98 and 94 and 99
- parasite growth, dose-response point ([2]; S3 - Clone B7, Log[NCP26] (M) -7.408): 105 and 98
